The data set relates to CCRIS mutagenicity, Ames/micronucleus/aberration tests. Nature of the data set: CCRIS mutagenicity studies. The settings on record: Test System: AMES SALMONELLA TYPHIMURIUM

Calls of active or inactive are those of the source. No rule for the calls is given here.

Turning to `CN(C)N=Nc1ccc(Br)cc1`, the mutagenic call reads like this: (Strain/Indicator: TA92, Metabolic Activation: MOUSE, LIVER, S-9, POLYCHLORINATED BIPHENYLS, Method: PREINCUBATION) “inactive; negative”; (Strain/Indicator: TA92, Metabolic Activation: MOUSE, LIVER, S-9, POLYCHLORINATED BIPHENYLS, Method: STANDARD PLATE) “inactive; negative”; (Strain/Indicator: TA92, Metabolic Activation: NONE, Method: STANDARD PLATE) “inactive; negative”; (Strain/Indicator: TA97, Metabolic Activation: MOUSE, LIVER, S-9, POLYCHLORINATED BIPHENYLS, Method: PREINCUBATION) “inactive; negative”; (Strain/Indicator: TA97, Metabolic Activation: MOUSE, LIVER, S-9, POLYCHLORINATED BIPHENYLS, Method: STANDARD PLATE) “inactive; negative”; (Strain/Indicator: TA97, Metabolic Activation: NONE, Method: STANDARD PLATE) “inactive; negative”. Besides, the mutagenic call is, setting by setting: (Strain/Indicator: TA98, Metabolic Activation: MOUSE, LIVER, S-9, POLYCHLORINATED BIPHENYLS, Method: PREINCUBATION) “active; positive”; (Strain/Indicator: TA98, Metabolic Activation: MOUSE, LIVER, S-9, POLYCHLORINATED BIPHENYLS, Method: STANDARD PLATE) “inactive; negative”; (Strain/Indicator: TA98, Metabolic Activation: NONE, Method: STANDARD PLATE) “inactive; negative”; (Strain/Indicator: TA100, Metabolic Activation: MOUSE, LIVER, S-9, POLYCHLORINATED BIPHENYLS, Method: PREINCUBATION) “inactive; negative”; (Strain/Indicator: TA100, Metabolic Activation: MOUSE, LIVER, S-9, POLYCHLORINATED BIPHENYLS, Method: STANDARD PLATE) “inactive; negative”; (Strain/Indicator: TA100, Metabolic Activation: NONE, Method: STANDARD PLATE) “inactive; negative”. Besides, the mutagenic call by setting is: (Strain/Indicator: TA1535, Metabolic Activation: MOUSE, LIVER, S-9, POLYCHLORINATED BIPHENYLS, Method: PREINCUBATION) “active; positive”; (Strain/Indicator: TA1535, Metabolic Activation: MOUSE, LIVER, S-9, POLYCHLORINATED BIPHENYLS, Method: STANDARD PLATE) “inactive; negative”; (Strain/Indicator: TA1535, Metabolic Activation: NONE, Method: STANDARD PLATE) “inactive; negative”; (Strain/Indicator: TA1537, Metabolic Activation: MOUSE, LIVER, S-9, POLYCHLORINATED BIPHENYLS, Method: PREINCUBATION) “active; positive”; (Strain/Indicator: TA1537, Metabolic Activation: MOUSE, LIVER, S-9, POLYCHLORINATED BIPHENYLS, Method: STANDARD PLATE) “active; positive”; (Strain/Indicator: TA1537, Metabolic Activation: NONE, Method: STANDARD PLATE) “active; positive”. Moreover, the mutagenic call is, setting by setting: (Strain/Indicator: TA1538, Metabolic Activation: MOUSE, LIVER, S-9, POLYCHLORINATED BIPHENYLS, Method: PREINCUBATION) “inactive; negative”; (Strain/Indicator: TA1538, Metabolic Activation: MOUSE, LIVER, S-9, POLYCHLORINATED BIPHENYLS, Method: STANDARD PLATE) “active; positive”; (Strain/Indicator: TA1538, Metabolic Activation: NONE, Method: STANDARD PLATE) “inactive; negative”.
Turning to `CC(C)(Cl)[N+](=O)[O-]`, the mutagenic call was “inactive; negative” (Strain/Indicator: TA98, Metabolic Activation: HAMSTER, LIVER, S-9, AROCLOR 1254 (30%), Method: PREINCUBATION); “inactive; negative” (Strain/Indicator: TA98, Metabolic Activation: NONE, Method: PREINCUBATION); “inactive; negative” (Strain/Indicator: TA98, Metabolic Activation: RAT, LIVER, S-9, AROCLOR 1254 (30%), Method: PREINCUBATION); “inactive; negative” (Strain/Indicator: TA100, Metabolic Activation: HAMSTER, LIVER, S-9, AROCLOR 1254 (30%), Method: PREINCUBATION); “active; positive” (Strain/Indicator: TA100, Metabolic Activation: NONE, Method: PREINCUBATION); “inactive; negative” (Strain/Indicator: TA100, Metabolic Activation: RAT, LIVER, S-9, AROCLOR 1254 (30%), Method: PREINCUBATION). The mutagenic call (Strain/Indicator: TA1535, Metabolic Activation: HAMSTER, LIVER, S-9, AROCLOR 1254 (30%), Method: PREINCUBATION) was “inactive; negative”; the mutagenic call (Strain/Indicator: TA1535, Metabolic Activation: NONE, Method: PREINCUBATION) was “inactive; negative”; the mutagenic call (Strain/Indicator: TA1535, Metabolic Activation: RAT, LIVER, S-9, AROCLOR 1254 (30%), Method: PREINCUBATION) is “inactive; negative”; the mutagenic call (Strain/Indicator: TA1538, Metabolic Activation: HAMSTER, LIVER, S-9, AROCLOR 1254 (30%), Method: PREINCUBATION) was “inactive; negative”; the mutagenic call (Strain/Indicator: TA1538, Metabolic Activation: NONE, Method: PREINCUBATION) is “inactive; negative”; the mutagenic call (Strain/Indicator: TA1538, Metabolic Activation: RAT, LIVER, S-9, AROCLOR 1254 (30%), Method: PREINCUBATION) is “inactive; negative”.

The values above are taken from PubChem BioAssay AID1259407 (Chemical Carcinogenesis Research Information System (CCRIS), 2018).
